Data taken from US20240238232A1, “COMPOSITIONS AND METHODS FOR THE REDUCTION OR TREATMENT OF INSULIN RESISTANCE AND METABOLIC CONDITIONS” (AXCELLA HEALTH INC., priority 2018, published 2024).

System: Human CCL2 (MCP-1)
Experiment: MCP1/CCL2 secretion in primary human hepatocytes (FFA + TNFα, ELISA after 24 h)
Type: cell-based
Details: for MCP1 expression relative to Control, Mean: baseline subtracted; for MCP1/CCL2 secretion: primary human hepatocytes from two healthy donors, FFA + TNFα, 24 h
Method: Hepatocyte lipotoxicity appears to be a central driver of hepatic cellular injury via oxidative stress and endoplasmic reticulum (ER) stress. The ability of amino acids to influence steatosis (lipid accumulation) and inflammation in hepatocytes was assessed using human primary hepatocytes (Lonza, TRL).
Primary hepatocytes lot nos. from two healthy human donors were seeded on day 0 at density of 6e04 cells in 96 well optical microplates (Thermofisher) in hepatocyte plating media (William's E medium (Gibco) supplemented with 10% heat-inactivated FBS (Atlanta Bio), 2 mM Glutamax (Gibco), and 0.2% Primocin (InVivoGen) and incubated for 6 hours at 37° C., 5% CO2. After 6 hours, cells were washed twice and incubated overnight at 37° C., 5% CO2 with Hepatocytes defined medium (Corning) supplemented with 2 mM Glutamax (Gibco), and 1×Penicillin/Streptomycin. On day 1, cells were washed twice and incubated for 24 h in the hepatocyte culture media in the same conditions described above.
On day 2, cells were washed twice with DPBS 1 X (Gibco) and maintained in amino acid-free WEM (US Biologicals) containing a defined custom amino acid concentration based on the mean physiological concentrations in blood. The values are published in the Human Metabolome Database (Wishart D S, Tzur D, Knox C, et al., HMDB: the Human Metabolome Database. Nucleic Acids Res. 2007 January; 35 (Database issue): D521-6. 17202168; which is hereby incorporated by reference in its entirety). This custom media is supplemented with 11 mM Glucose, 0.272 mM Sodium Pyruvate, and a dose curve of defined amino acid compositions (i.e., vehicle, LIVRQ+N-acetylcysteine, LIVRQ, RQ+N-acetylcysteine, N-acetylcysteine alone, LIV, or individually with L-Leucine, L-Isoleucine, L-Valine, L-Arginine, L-Glutamine, and L-Cysteine) at various ranges of concentrations. Cells were maintained in this defined media for 24 hours at 37° C., 5% CO2.
Co-treatment with free fatty acids and different amino acids combination After pre-treatment, cells were exposed to free fatty acids (FFA) at 250 uM with a ratio of 2:1 (Oleate: Palmitate) supplemented with TNF-α (Thermofisher) at 1 ng/ml or vehicle. Cells were incubated with the FFAs mixture and the different amino acids combinations for 24 hours at 37° C., 5% CO2. After 24 hours incubation, media was removed for cytokine analysis and replaced by fresh media containing the same stimulus conditions and amino acid concentrations. Cells were incubated for an additional 48 hours for a total of 72 hours of FFA and TNFα stimulation.
Human CCL2 (MCP-1) was measured by ELISA (Human […] DuoSet ELISA, R&D Systems) at ⅕ or 1/10 dilution in 1 X Reagent Diluent (Reagent Ancillary Kit 2, R&D Systems). Data were normalized to the specific per well cell density determined by nuclei count stained by Hoechst 3342 (Life technologies) in the fluorescence microscopy described below.
MCP1 CCL2 Secretion Tables 56-59 show the baseline subtracted secretion of MCP1/CCL2 in primary human hepatocytes cells from two healthy donors (donor 1 for Tables 56 and 57, and donor 2 for Tables 58 and 59).

CC(C)[C@H](N)C(=O)O [Valine, L-Valine]
MCP1 expression relative to Control, Mean (Donor 1, Conc. 234 μM): −2.4E−15 | MCP1 expression relative to Control, Mean (Donor 1, Conc. 4684 μM): 23.6867 | MCP1 expression relative to Control, Mean (Donor 1, Conc. 11710 μM): 77.73 | MCP1 expression relative to Control, Mean (Donor 1, Conc. 23420 μM): 14.17 | MCP1 expression relative to Control, Mean (Donor 2, Conc. 234 μM): −1.4E−14 | MCP1 expression relative to Control, Mean (Donor 2, Conc. 4684 μM): 10.79 | MCP1 expression relative to Control, Mean (Donor 2, Conc. 11710 μM): 38.25 | MCP1 expression relative to Control, Mean (Donor 2, Conc. 23420 μM): −30.7921 | MCP1/CCL2 secretion: did not have an effect

N=C(N)NCCC[C@H](N)C(=O)O [arginine, L-Arginine]
MCP1 expression relative to Control, Mean (Donor 1, Conc. 109 μM): 2.37E−15 | MCP1 expression relative to Control, Mean (Donor 1, Conc. 1088 μM): 5.114 | MCP1 expression relative to Control, Mean (Donor 1, Conc. 2720 μM): 6.527 | MCP1 expression relative to Control, Mean (Donor 1, Conc. 5440 μM): 10.9386 | MCP1 expression relative to Control, Mean (Donor 2, Conc. 109 μM): −4.7E−15 | MCP1 expression relative to Control, Mean (Donor 2, Conc. 1088 μM): 24.95 | MCP1 expression relative to Control, Mean (Donor 2, Conc. 2720 μM): 24.06 | MCP1 expression relative to Control, Mean (Donor 2, Conc. 5440 μM): 8.494 | MCP1/CCL2 secretion: increased

CC[C@H](C)[C@H](N)C(=O)O [Isoleucine, L-Isoleucine]
MCP1 expression relative to Control, Mean (Donor 1, Conc. 66 μM): −1.2E−15 | MCP1 expression relative to Control, Mean (Donor 1, Conc. 1328 μM): −0.3073 | MCP1 expression relative to Control, Mean (Donor 1, Conc. 3320 μM): −2.417 | MCP1 expression relative to Control, Mean (Donor 1, Conc. 6639 μM): −0.205 | MCP1 expression relative to Control, Mean (Donor 2, Conc. 66 μM): 0 | MCP1 expression relative to Control, Mean (Donor 2, Conc. 1328 μM): 26.62 | MCP1 expression relative to Control, Mean (Donor 2, Conc. 3320 μM): −5.645 | MCP1 expression relative to Control, Mean (Donor 2, Conc. 6639 μM): 18.62 | MCP1/CCL2 secretion: did not have an effect

CC(=O)N[C@@H](CS)C(=O)O [N-acetyl cysteine, N-acetylcysteine]
MCP1 expression relative to Control, Mean (Donor 1, Conc. 1000 μM): −0.7629 | MCP1 expression relative to Control, Mean (Donor 1, Conc. 2500 μM): −2.498 | MCP1 expression relative to Control, Mean (Donor 1, Conc. 5000 μM): −10.8919 | MCP1 expression relative to Control, Mean (Donor 1, Conc. 10000 μM): −17.6065 | MCP1 expression relative to Control, Mean (Donor 1, Conc. (X) 5): −0.7629 | MCP1 expression relative to Control, Mean (Donor 1, Conc. (X) 10): −2.498 | MCP1 expression relative to Control, Mean (Donor 1, Conc. (X) 20): −10.8919 | MCP1 expression relative to Control, Mean (Donor 1, Conc. (X) 40): −17.6065 | MCP1 expression relative to Control, Mean (Donor 2, Conc. 1000 μM): 1.602 | MCP1 expression relative to Control, Mean (Donor 2, Conc. 2500 μM): −4.0591 | MCP1 expression relative to Control, Mean (Donor 2, Conc. 5000 μM): −10.5725 | MCP1 expression relative to Control, Mean (Donor 2, Conc. 10000 μM): −28.4419 | MCP1 expression relative to Control, Mean (Donor 2, Conc. (X) 1000): 1.602 | MCP1 expression relative to Control, Mean (Donor 2, Conc. (X) 2500): −4.0591 | MCP1 expression relative to Control, Mean (Donor 2, Conc. (X) 5000): −10.5725 | MCP1 expression relative to Control, Mean (Donor 2, Conc. (X) 10000): −28.4419 | MCP1/CCL2 secretion: significantly decrease

NC(=O)CC[C@H](N)C(=O)O [glutamine, L-Glutamine]
MCP1 expression relative to Control, Mean (Donor 1, Conc. 749 μM): 0 | MCP1 expression relative to Control, Mean (Donor 1, Conc. 3747 μM): −0.8981 | MCP1 expression relative to Control, Mean (Donor 1, Conc. 11242 μM): −9.001 | MCP1 expression relative to Control, Mean (Donor 1, Conc. 22484 μM): −21.8392 | MCP1 expression relative to Control, Mean (Donor 2, Conc. 749 μM): 2.84E−14 | MCP1 expression relative to Control, Mean (Donor 2, Conc. 3747 μM): −45.0574 | MCP1 expression relative to Control, Mean (Donor 2, Conc. 11242 μM): −90.6558 | MCP1 expression relative to Control, Mean (Donor 2, Conc. 22484 μM): −138.873 | MCP1/CCL2 secretion: significantly decrease

CC(C)C[C@H](N)C(=O)O [Leucine, L-Leucine]
MCP1 expression relative to Control, Mean (Donor 1, Conc. 153 μM): 5.92E−16 | MCP1 expression relative to Control, Mean (Donor 1, Conc. 3054 μM): 3.34 | MCP1 expression relative to Control, Mean (Donor 1, Conc. 7635 μM): 1.896 | MCP1 expression relative to Control, Mean (Donor 1, Conc. 15270 μM): −1.368 | MCP1 expression relative to Control, Mean (Donor 2, Conc. 153 μM): −4.7E−15 | MCP1 expression relative to Control, Mean (Donor 2, Conc. 3054 μM): 16.11 | MCP1 expression relative to Control, Mean (Donor 2, Conc. 7635 μM): −2.988 | MCP1 expression relative to Control, Mean (Donor 2, Conc. 15270 μM): −26.6436 | MCP1/CCL2 secretion: did not have an effect
